In PMC9385959, “Mammalian derived lipocalin and secretoglobin respiratory allergens strongly bind ligands with potentially immune modulating properties” (Frontiers in Allergy, 2022):
pKi: −log10 of the molar value. Where “and” joins values, the source holds several entries; their conditions need not be identical. Identical values can stand only once. Like-named read-outs stand apart in the source and are kept apart here.

Legend:
Cav p 1.0101 = Cav p 1.0101 (Cavia porcellus, UniProt A0A484HM70, S19A); assay: Competitive fluorescence-quenching assay, Cav p 1.0101; format: binding, guinea pig; settings: 5 μM Cav p 1.0101-1-AMA complex, 50 μM ligand, n = 2
Method: (§1) Fluorescence quenching assays were performed as previously described ([45]), with modifications. Fluorochromes and ligands were purchased from Sigma Aldrich (Steinheim, Germany), Carl Roth (Karlsruhe, Germany) and TCI Europe N.V. (Zwijndrecht, Belgium).
(§2) Stock solutions were prepared at a concentration of 10 mM in 100% ethanol for the fluorochromes 1-aminoanthracene (1-AMA), 8-anilino-1-naphthalensulfonic acid (1,8-ANS) and for all ligands, and in 100% methanol for n-phenyl-1-naphthylamine (1-NPN), respectively. Iron catecholate ligands (siderophores) were prepared as previously described ([46]). Fluorochrome-protein complexes were analyzed at an equimolar concentration of 5 μM in PBS with 5% ethanol in a volume of 100 μL per well in black 96-well non-binding microplates (Greiner Bio-One GmbH, Frickenhausen, Germany). Solutions containing only protein or the respective fluorescent probe in PBS with 5% ethanol served as controls. Fluorochrome-protein complexes were incubated with orbital shaking for 10 min at 500 rpm at room temperature (RT) before measurement using the fluorescence reader TECAN Infinite 200 Pro (Tecan Trading AG, Switzerland). Excitation wavelengths were fixed at 380 nm for 1-AMA and 1,8-ANS, and 337 nm for 1-NPN. Fluorescence emission spectra were recorded in 5 nm steps between 420 and 560 nm for 1-AMA and 1,8-ANS and between 380 and 500 nm for 1-NPN. The establishment of fluorescent quenching assay parameters for each allergen is explained in the results Section Fluorescence-quenching assay set up. Binding affinities were analyzed by non-linear regression in GraphPad Prism Version 9.3.1 (GraphPad Software, LLC). For the ligand competition assays, ligands were added to fluorochrome-allergen complexes with a final buffer composition of 5% ethanol in PBS in a volume of 100 μL and incubated for 30 min at 500 rpm at RT and further equilibrated for another 30 min without shaking before fluorescence measurement.
(§3) The binding affinities of non-fluorescent ligands is inferred to by their ability to compete and displace the fluorochromes bound to the allergen at a certain concentration. This leads to a measurable decrease in fluorescence intensity that will be expressed as fluorescence inhibition (Figure 6). For a given allergen, the ligand with the strongest inhibition has the highest binding affinity. […] Competitive ligand binding was analyzed by non-linear regression and inhibitory dissociation constants (Ki) were calculated.

Cav p 1.0201 = Cav p 1.0201 (Cavia porcellus, UniProt A0A484HRI4); assay: Competitive fluorescence-quenching assay, Cav p 1.0201; format: binding, guinea pig; settings: 5 μM Cav p 1.0201-1-AMA complex, 50 μM ligand, n = 2
Method: as §1, §2, §3

Ory c 2 = assay: Competitive fluorescence-quenching assay, Ory c 2; format: binding, rabbit; settings: 5 μM Ory c 2-1-AMA complex, 50 μM ligand, n = 2
Method: as §1, §2, §3

Can f 6 = target: T1, Can f 6 (Canis lupus familiaris, UniProt H2B3G5); assay: Competitive fluorescence-quenching assay, Can f 6; format: binding, dog; settings: for pKi: 5 μM Can f 6, fluorochrome 1-NPN, to be interpreted with caution, imprecise Ki values, read-out: Ligand inhibition constant Ki; for inhibition at 100 µM: read-out: Mean fluorescence inhibition
T1 construct: polyhistidine tag (C); made in house; host or cells: E. coli Rosetta-gami 2
T1 sequence (H2B3G5 16-190): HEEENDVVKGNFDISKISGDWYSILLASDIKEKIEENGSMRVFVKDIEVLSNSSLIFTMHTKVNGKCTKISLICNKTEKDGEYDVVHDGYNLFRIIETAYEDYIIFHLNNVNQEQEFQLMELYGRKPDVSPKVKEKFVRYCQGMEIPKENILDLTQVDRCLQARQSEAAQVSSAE
Method: as §1, §2, §3

Fel d 4 = target: T2, Fel d 4 (Felis catus, UniProt Q5VFH6); assay: Competitive fluorescence-quenching assay, Fel d 4; format: binding, cat; settings: for inhibition at 100 µM: read-out: Mean fluorescence inhibition
T2 construct: polyhistidine tag (C); made in house; host or cells: E. coli Rosetta-gami 2
T2 sequence (Q5VFH6 16-186): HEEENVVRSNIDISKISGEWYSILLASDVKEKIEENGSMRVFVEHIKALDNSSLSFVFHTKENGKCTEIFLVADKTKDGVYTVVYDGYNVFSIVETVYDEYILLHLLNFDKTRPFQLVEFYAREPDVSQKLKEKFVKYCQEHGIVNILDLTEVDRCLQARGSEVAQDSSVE
Method: as §1, §2, §3

Fel d 1 = target: T3, Fel d 1 (Felis catus, UniProt P30438+P30440); assay: Competitive fluorescence-quenching assay, Fel d 1; format: binding, cat; settings: 100 μM ligand
T3 construct: polyhistidine tag (C); made in house; host or cells: E. coli Rosetta-gami 2
T3 sequence (P30438+P30440 with tags, fused parts or gaps): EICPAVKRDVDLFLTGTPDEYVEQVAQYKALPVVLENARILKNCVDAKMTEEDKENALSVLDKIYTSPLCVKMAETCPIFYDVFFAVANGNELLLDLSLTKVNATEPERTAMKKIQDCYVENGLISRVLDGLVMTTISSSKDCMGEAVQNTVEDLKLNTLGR
Method: as §1, §2, §3

Ory c 3 = Ory c 3 (Oryctolagus cuniculus, UniProt Q9GK63+Q9GK67); assay: Competitive fluorescence-quenching assay, Ory c 3; format: binding, rabbit; settings: 5 μM Ory c 3-1-AMA complex, 50 μM ligand, n = 2
Method: as §1, §2, §3

Can f 1 = target: T4, Can f 1 (Canis lupus familiaris, UniProt O18873); assay: Competitive fluorescence-quenching assay, Can f 1; format: binding, dog; settings: for inhibition at 50 µM: read-out: Mean fluorescence inhibition
T4 construct: made in house; host or cells: E. coli Rosetta-gami 2(DE3)
Method: as §1, §2, §3

human LCN1 = target: T5, human LCN1 (Homo sapiens, UniProt P31025); assay: Competitive fluorescence-quenching assay, LCN1; format: binding
T5 construct: made in house; host or cells: E. coli Rosetta-gami 2(DE3)
Method: as §1, §2, §3

[1] = 5 μM Can f 6-1-NPN complex, 100 μM ligand, high standard error
[2] = 5 μM Fel d 4-1-NPN complex, 100 μM ligand
[3] = 5 μM LCN1-1,8-ANS complex, 50 μM ligand, n = 2
[4] = 5 μM Can f 1-1,8-ANS complex, 50 μM ligand, n = 2

CC(C)=CCCC(C)=CC#N [Geranyl nitrile, geranyl nitrile]
Mean fluorescence inhibition (Cav p 1.0101): 57.4%
Mean fluorescence inhibition (Cav p 1.0201): 89.1%
Mean fluorescence inhibition (Ory c 2): 91.2%

COc1nccnc1CC(C)C [IBMP, 2-isobutyl-3-methoxypyrazine]
pKi (Can f 6): 4.30
inhibition at 100 µM (Can f 6; [1]): 118%
pKi (Fel d 4; 5 μM Fel d 4, fluorochrome 1-NPN, to be interpreted with caution, imprecise Ki values, read-out: Ligand inhibition constant Ki): 4.41
inhibition at 100 µM (Fel d 4; [2]): 96.8%

CCCCCCCCN [Octanamine, octanamine]
pKi (Can f 6): 3.56
Mean fluorescence inhibition (Can f 6; [1]): 148.7%
Mean fluorescence inhibition (Fel d 1; 5 μM Fel d 1 + 1,8-ANS complex): 37.7%
Mean fluorescence inhibition (Fel d 1; 5 μM Fel d 1 + 1-NPN complex): 81.1%
Mean fluorescence inhibition (Ory c 3): 54.7%
Mean fluorescence inhibition (Fel d 4; [2]): 94.9%

CCCCCCCCCCCCCCC(=O)O [Pentadecanoic acid, pentadecanoic acid]
inhibition at 50 µM (Can f 1): 41.4%
inhibition at 50 µM (human LCN1; [3]): 88.7%

CCCCCCCCCCCCCCCO [Pentadecanol, pentadecanol]
Mean fluorescence inhibition (Cav p 1.0101): 51.3%
Mean fluorescence inhibition (Cav p 1.0201): 94.5%
Mean fluorescence inhibition (Ory c 2): 20.8%

CC1=C(/C=C/C(C)=C/C=C/C(C)=C/CO)C(C)(C)CCC1 [Retinol, retinol]
inhibition at 50 µM (Can f 1; [4]): 49%
inhibition at 50 µM (human LCN1; [3]): 84.3%

C[C@]12CC[C@H]3[C@@H](CCC4=CC(=O)CC[C@@]43C)[C@@H]1CC[C@@H]2O [Testosterone, testosterone]
inhibition at 100 µM (Can f 6): 43.7%
Mean fluorescence inhibition (Cav p 1.0101): not observed
Mean fluorescence inhibition (Cav p 1.0201): not observed
inhibition at 100 µM (Fel d 4): 92.2%

CCCCCCCCCCCCCC(=O)O [Tetradecanoic acid, tetradecanoic acid]
pKi (Can f 1; 5 μM Can f 1, fluorochrome 1,8-ANS, read-out: Ligand inhibition constant Ki): 5.13
inhibition at 50 µM (Can f 1): 60.8%
pKi (human LCN1; 5 μM LCN1, fluorochrome 1,8-ANS, read-out: Ligand inhibition constant Ki): 5.74
inhibition at 50 µM (human LCN1; [3]): 91.9%

CCCCCCCCCCCCCCO [Tetradecanol, tetradecanol]
Mean fluorescence inhibition (Cav p 1.0101): 82.4%
Mean fluorescence inhibition (Cav p 1.0201): 97.9%
Mean fluorescence inhibition (Ory c 2): 55.4%
Mean fluorescence inhibition (Fel d 1; 5 μM Fel d 1 + 1,8-ANS complex): 0.0%
Mean fluorescence inhibition (Ory c 3): 92.9%

CC(C)CCC[C@@H](C)[C@H]1CC[C@H]2[C@@H]3CC=C4C[C@@H](O)CC[C@]4(C)[C@H]3CC[C@]12C [cholesterol]
Mean fluorescence inhibition (Cav p 1.0101): not observed
Mean fluorescence inhibition (Cav p 1.0201): not observed

Lipopolysaccharide
Mean fluorescence inhibition (Can f 1; [4]): 57.4%
Mean fluorescence inhibition (human LCN1; [3]): 81% and 81.2%

monophosphoryl lipid A [MPLA]
Mean fluorescence inhibition (Cav p 1.0101): more than half
Mean fluorescence inhibition (Cav p 1.0201): more than half
Mean fluorescence inhibition (Ory c 3): more than half
